Source: patent US20030148377A1, “Binding compounds and methods for identifying binding compounds” (priority 2000, published 2003)

Experiments:
Assay type in all cases: cell-based
[1] = system: human IL-2 promoter luciferase reporter in Jurkat cells; assay: IL-2 reporter gene analysis, PMA plus ionomycin (pathway that circumvents ZAP-70); conditions: 10 μM peptide; phorbol ester plus ionomycin; FIG. 2G
Procedure: (§1) Penetratin-containing peptides (FIG. 2A; peptide 7 (SEQ ID NO: 11) or peptide 8 (SEQ ID NO: 12)) were dissolved in DMSO and diluted to 20 μM in 500 μl of serum-free RPMI1640 medium. Ten million Jurkat cells, suspended in 500 μl of serum-free RPMI1640, were added to the peptide solutions for diluted DMSO control and incubated for 30 min at 37° C. Peptide-pretreated cells were treated with 1 μg of the anti-CD3ε mAb at 4° C. for 10 min, followed by another 10 min incubation in the presence of 5 μg of rabbit anti-mouse Ig. Cells were activated by shifting the temperature to 37° C. for 2 min and subsequently lysed in 1% NP40 lysis buffer. […] Luciferase activities from lysates were measured using a Dual-Luciferase Reporter System and Monolight 2010 luminometer.
(§2) Jurkat cells were electroporated at 250V, 800 μF settings (Invitrogen Life Technologies, Carlsbad, Calif.), in the presence of 10 μg of plasmid carrier DNA (pCAGGS vector), 100 ng of Renilla luciferase control vector (pRL null), and 2.5 μg of a luciferase reporter gene whose transcriptional activity is controlled by the human IL-2 promoter (IL-2-Luc). […] Luciferase activities from lysates were measured using a Dual-Luciferase Reporter System (Promega, Madison, Wis.) and Monolight 2010 luminometer (Analytical Luminescence Laboratory, San Diego, Calif.). […]

[2] = system: Tyr phosphorylation of PLCγ1 or LAT in Jurkat cells; assay: Anti-CD3-dependent Tyr phosphorylation of PLCγ1 or LAT in Jurkat cells; conditions: CD3ε cross-linking
Procedure: Penetratin-containing peptides (FIG. 2A; peptide 7 (SEQ ID NO: 11) or peptide 8 (SEQ ID NO: 12)) were dissolved in DMSO and diluted to 20 μM in 500 μl of serum-free RPMI1640 medium. Ten million Jurkat cells, suspended in 500 μl of serum-free RPMI1640, were added to the peptide solutions for diluted DMSO control and incubated for 30 min at 37° C. Peptide-pretreated cells were treated with 1 μg of the anti-CD3ε mAb at 4° C. for 10 min, followed by another 10 min incubation in the presence of 5 μg of rabbit anti-mouse Ig. Cells were activated by shifting the temperature to 37° C. for 2 min and subsequently lysed in 1% NP40 lysis buffer. Lysates were immunoprecipitated with either the 4G10 anti-phosphotyrosine mAb (FIG. 2B; lanes 1-5), or with anti-PLCγ1 antibody (FIG. 2B; lanes 6-10), or with anti-LAT antibody (FIG. 2D; lane 11-15), and immunoblotted with the HRP-conjugated anti-phosphotyrosine Ab, RC20H. Lanes 1, 2, 6, 7, 11 and 12 corresponded to untreated Jurkat cells; lysates in lanes 3, 8, and 13 were prepared from cells treated with DMSO; lysates in lanes 4, 9, and 14 were prepared from cells treated with peptide 7; lysates in lanes 5, 10, and 15 were prepared from cells treated with peptide 8. (−) indicates nonstimulated cells; (+) indicates stimulation by CD3ε cross-linking. Each blot was stripped and reprobed with anti-PLCγ1 antibody (FIG. 2C) or anti-LAT antibody (FIG. 2E). Jurkat cells were electroporated in the presence of 10 μg of plasmid carrier DNA, 100 ng of Renilla luciferase control vector, and 2.5 μg of a luciferase reporter gene. Transfectants were treated with 10 μM of peptide 7, peptide 8, or DMSO as described above. Treated cells were stimulated with plate-bound anti-CD3ε mAb and 10 ng/ml of PMA (phorbol 12-myristate-13-acetate; FIG. 2F), or 10 ng/ml of PMA plus 2 μM of ionomycin (FIG. 2G) at 37° C. for 2 hr. Luciferase activities from lysates were measured using a Dual-Luciferase Reporter System and Monolight 2010 luminometer. […]

[3] = system: human IL-2 promoter luciferase reporter in Jurkat cells; assay: IL-2 reporter gene analysis, anti-CD3ε mAb plus PMA (ZAP-70-dependent pathway); conditions: 10 μM peptide; anti-CD3 plus phorbol ester as stimulant, 2 hr; FIG. 2F
Procedure: as §1, §2

## peptide 8: chimeric peptide with penetratin at the N terminus and peptide 4 at the C terminus (RQIKIWFQNRRMKWKKKLILFLLLL)
[1]
  effect on IL-2 reporter gene expression (in words): no effect on gene expression
[2]; 30 min peptide pretreatment at 37° C., anti-phosphotyrosine blot, FIG. 2B
  effect on anti-CD3-stimulated Tyr-phosphorylation of most proteins (in words): little effect on most of these proteins
[2]; anti-LAT immunoprecipitates, FIG. 2D lane 15
  Tyr phosphorylation of LAT (in words): reduced the Tyr phosphorylation
[2]; anti-PLCγ1 immunoprecipitates, FIG. 2B lane 10
  Tyr phosphorylation of PLCγ1 (in words): reduced the Tyr phosphorylation of PLCγ1
[3]
  inhibition of gene expression (IL-2 reporter): more than 70%
